Laboratory results as given in patent publication US12098154B2, “Inhibitors of cyclin-dependent kinases” (Dana-Farber Cancer Institute, Inc., priority 2015, dated 2024).
Read-outs that look alike come from different tables or passages of the source.

Assays:
CDK2/CycA = CDK2/CycA (Homo sapiens, UniProt P24941); assay: CDK2/CycA inhibition (Tables A1, A2); type: biochemical
CDK9/CycT = CDK9/CycT (Homo sapiens, UniProt P50750); assay: CDK9/CycT inhibition (Tables A1, A2); type: biochemical
CDK7/CycH = CDK7/CycH (Homo sapiens, UniProt P50613); assay: CDK7/CycH inhibition (Tables A1, A2); type: biochemical
HAP1 cells = assay: HAP1 cell proliferation assay, wild type vs CDK12 C1039S/CDK13 C1017S; type: cell-based; conditions: 72 hrs proliferation
Protocol: Double mutant cells are 4-fold less sensitive to E17 compared to wild type cells indicating rescue of CDK12/13 inhibition-induced proliferation defects. HAP1 cells were seeded at a density of 12,000 cells/well in 96-well plates. Twenty-four hours later, cells were treated with the indicated compounds in a 10-pt dose escalation format from 1 nM to 10 μM or DMSO control for 72 hours. After 72 hours, the cells were assayed using CellTiter-Glo Luminescent Cell Viability Assay (Promega) to determine cell viability by measuring the amount of ATP present in each sample cell population, which is an indicator of cell metabolic activity. Results were graphed as fraction of the DMSO control at 72 hours. All data points were performed in biological triplicate. Error bars are +/−SD.
Genome Editing: The CRISPR/Cas9 system was used to mutate the endogenous CDK12 and CDK13 loci to encode for CDK12 C1039S and CDK13 C1017S, both of which are putative CDK12/13 inhibitor-refractory mutants. Target-specific oligonucleotides were cloned into pX330, which carries a codon-optimized version of Cas9 and was further modified to express GFP for identifying transfectants. […]

CDK7 = target: T1, CDK7 (Homo sapiens, UniProt P50613); assay: Pulldown assay with biotin-THZ1, blot for Cyclin H; type: cell-based; conditions: Jurkat cells treated with 1 uM or 200 nM
T1 construct: endogenous in cells; host or cells: Jurkat
Protocol: Compounds E9 and E17 were able to block pulldown of cyclin K at 1 μM and 200 nM. Specifically. […] Decreased pulldown of cyclin K with biotin-THZ1 indicated a loss of CDK12 binding.
(§1) 6 hours after treatment, cells were washed and harvested by resuspending in lysis buffer (50 mM Hepes pH 7.4, 150 mM NaCl, 1% NP-40, 5 mM EDTA, protease and phosphatase inhibitors) and lysing on ice 30 minutes. Lysates were cleared by centrifugation at 15,000 rpm 30 minutes. Biotin-labeled THZ1 was added to 1 uM to lysates and rotated at 4° C. overnight. Streptavidin-agarose beads were washed and 30 uL slurry was added to each lysate and rotated for 1 hour at 4° C. Beads were washed 5 times with lysis buffer and 50 uL 2×LDS buffer was added to each sample. Samples were boiled and equal volume of protein was loaded onto gel. Gel was transferred to nitrocellulose and blotted for Cyclin K and Cyclin H.

Jurkat cells [1] = assay: Growth assay with and without washout; type: cell-based; conditions: 1 uM, 4 hours treatment, assayed 68 hours after washout
Protocol: Cells were treated with each compound for 4 hours and either no washout (no washout) or had compound removed by washing cells with media (washout). Sixty-eight (68) hours after washout, the cells were assayed for antiproliferative effects. Error bars indicate +/−SD.
4 hours after treatment, cells were either not treated or washed three times with RPMI media to remove all compound. Cells were replated and allowed to grow for 68 hours. Cells were assayed using celltiter glo (Promega) to determine cell viability by measuring the amount of ATP present, which is an indicator of cell metabolic activity. Results are graphed as luminescent values (FIG. 1).

CDK12 = target: T2, CDK12 (Homo sapiens, UniProt Q9NYV4); assay: Pulldown assay with biotin-THZ1, blot for Cyclin K; type: cell-based; conditions: Jurkat cells treated with 1 uM or 200 nM
T2 construct: endogenous in cells; host or cells: Jurkat
Protocol: Specifically. […] Decreased pulldown of cyclin K with biotin-THZ1 indicated a loss of CDK12 binding.
as §1

[2] = system: Pol II Ser2 phosphorylation and MCL1 levels; assay: Washout expression assay (western blot); type: cell-based; conditions: Jurkat cells, 1 uM, 4 hours, 6 hours
Protocol: 4 hours after treatment, cells were either not treated or washed three times with RPMI media to remove all compound. Cells were replated and allowed to grow for 6 hours. Cells were harvested, washed 3 times with PBS and resuspended in RIPA buffer (25 mM Tris-HCl (pH 7.6), 150 mM NaCl, 1% NP-40, 1% sodium deoxycholate, 0.1% SDS). Equal amount of protein was loaded onto gel and blotted for Pol II Ser2 (Millipore 04-1571), total pol II (Santa Cruz 17798), Tubulin (Cell Signaling 11H10) or MCL1 (Cell Signaling 4572S)

Jurkat cells [3] = assay: Jurkat proliferation assay (CellTiter-Glo); type: cell-based; conditions: for IC50: Homo sapiens, Jurkat
Protocol: Jurkat cells were seeded at a density of 25,000 cells/well in 96-well plates. Cells were then treated with the indicated compounds in a 10-pt dose escalation format from 1 nM to 10 μM or DMSO control for 72 hours. After 72 hours, the cells were assayed using CellTiter-Glo Luminescent Cell Viability Assay (Promega) to determine cell viability by measuring the amount of ATP present in each sample cell population, which is an indicator of cell metabolic activity. […] All data points were performed in biological triplicate. Error bars are +/−SD.
Jurkat cells were seeded at a density of 25,000 cells/well in 96-well plates. Cells were then treated with the indicated compounds in a 10-pt dose escalation format from 1 nM to 10 μM or DMSO control for 72 hrs. After 72 hrs, cells were assayed using CellTiter-Glo Luminescent Cell Viability Assay (Promega) to determine cell viability by measuring the amount of ATP present in each sample cell population, which is an indicator of cell metabolic activity. […] All data points were performed in biological triplicate. Error bars are +/−SD.

Chain of CDK9/CycT (P50750 whole entry): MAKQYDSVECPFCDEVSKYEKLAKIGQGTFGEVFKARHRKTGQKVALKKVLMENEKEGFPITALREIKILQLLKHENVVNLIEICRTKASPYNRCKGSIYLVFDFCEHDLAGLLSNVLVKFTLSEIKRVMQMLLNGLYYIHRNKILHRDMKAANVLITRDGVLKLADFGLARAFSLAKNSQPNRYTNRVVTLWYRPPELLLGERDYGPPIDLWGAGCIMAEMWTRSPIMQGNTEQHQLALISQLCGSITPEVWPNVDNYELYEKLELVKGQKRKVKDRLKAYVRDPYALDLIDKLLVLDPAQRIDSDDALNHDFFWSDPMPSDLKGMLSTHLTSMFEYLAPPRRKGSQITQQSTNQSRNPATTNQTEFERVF
Chain of CDK9/CycT (O60563 whole entry partner): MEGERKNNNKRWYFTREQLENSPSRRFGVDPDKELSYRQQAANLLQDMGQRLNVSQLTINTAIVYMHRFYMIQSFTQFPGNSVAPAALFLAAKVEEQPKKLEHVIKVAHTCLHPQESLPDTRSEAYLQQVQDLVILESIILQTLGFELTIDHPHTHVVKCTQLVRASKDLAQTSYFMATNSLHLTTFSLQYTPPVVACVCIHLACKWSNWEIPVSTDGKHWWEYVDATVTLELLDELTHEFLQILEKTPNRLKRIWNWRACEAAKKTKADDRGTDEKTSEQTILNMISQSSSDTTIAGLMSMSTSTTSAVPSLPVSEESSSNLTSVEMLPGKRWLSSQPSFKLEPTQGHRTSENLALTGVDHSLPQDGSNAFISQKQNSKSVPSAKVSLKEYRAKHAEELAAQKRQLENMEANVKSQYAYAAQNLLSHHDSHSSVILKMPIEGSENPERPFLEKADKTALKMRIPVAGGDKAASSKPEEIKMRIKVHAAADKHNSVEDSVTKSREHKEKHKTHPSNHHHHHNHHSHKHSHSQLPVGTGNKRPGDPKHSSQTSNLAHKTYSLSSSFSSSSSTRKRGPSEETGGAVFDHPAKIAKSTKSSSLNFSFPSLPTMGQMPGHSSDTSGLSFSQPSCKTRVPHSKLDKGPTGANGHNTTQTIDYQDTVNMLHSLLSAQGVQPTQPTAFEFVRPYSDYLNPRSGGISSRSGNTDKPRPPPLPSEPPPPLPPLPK
Chain of CDK7/CycH (P50613 whole entry): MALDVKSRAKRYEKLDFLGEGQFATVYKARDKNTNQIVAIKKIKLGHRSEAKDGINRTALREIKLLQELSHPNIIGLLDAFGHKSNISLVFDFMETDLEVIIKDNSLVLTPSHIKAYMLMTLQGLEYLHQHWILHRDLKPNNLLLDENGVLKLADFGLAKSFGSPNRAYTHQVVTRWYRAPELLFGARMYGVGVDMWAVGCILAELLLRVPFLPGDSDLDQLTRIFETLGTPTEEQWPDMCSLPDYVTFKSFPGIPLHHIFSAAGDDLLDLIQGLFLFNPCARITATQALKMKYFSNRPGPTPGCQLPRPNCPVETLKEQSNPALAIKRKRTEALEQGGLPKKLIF
Chain of CDK7/CycH (P51946 whole entry partner): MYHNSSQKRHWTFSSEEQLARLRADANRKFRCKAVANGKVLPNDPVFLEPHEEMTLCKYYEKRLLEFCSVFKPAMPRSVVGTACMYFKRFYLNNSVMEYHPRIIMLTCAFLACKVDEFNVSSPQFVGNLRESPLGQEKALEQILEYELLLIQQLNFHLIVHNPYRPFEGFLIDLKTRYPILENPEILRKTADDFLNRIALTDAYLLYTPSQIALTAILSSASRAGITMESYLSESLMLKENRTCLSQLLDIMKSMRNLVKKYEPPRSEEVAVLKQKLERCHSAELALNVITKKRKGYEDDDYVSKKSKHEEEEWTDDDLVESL
T2 sequence (Q9NYV4 whole entry): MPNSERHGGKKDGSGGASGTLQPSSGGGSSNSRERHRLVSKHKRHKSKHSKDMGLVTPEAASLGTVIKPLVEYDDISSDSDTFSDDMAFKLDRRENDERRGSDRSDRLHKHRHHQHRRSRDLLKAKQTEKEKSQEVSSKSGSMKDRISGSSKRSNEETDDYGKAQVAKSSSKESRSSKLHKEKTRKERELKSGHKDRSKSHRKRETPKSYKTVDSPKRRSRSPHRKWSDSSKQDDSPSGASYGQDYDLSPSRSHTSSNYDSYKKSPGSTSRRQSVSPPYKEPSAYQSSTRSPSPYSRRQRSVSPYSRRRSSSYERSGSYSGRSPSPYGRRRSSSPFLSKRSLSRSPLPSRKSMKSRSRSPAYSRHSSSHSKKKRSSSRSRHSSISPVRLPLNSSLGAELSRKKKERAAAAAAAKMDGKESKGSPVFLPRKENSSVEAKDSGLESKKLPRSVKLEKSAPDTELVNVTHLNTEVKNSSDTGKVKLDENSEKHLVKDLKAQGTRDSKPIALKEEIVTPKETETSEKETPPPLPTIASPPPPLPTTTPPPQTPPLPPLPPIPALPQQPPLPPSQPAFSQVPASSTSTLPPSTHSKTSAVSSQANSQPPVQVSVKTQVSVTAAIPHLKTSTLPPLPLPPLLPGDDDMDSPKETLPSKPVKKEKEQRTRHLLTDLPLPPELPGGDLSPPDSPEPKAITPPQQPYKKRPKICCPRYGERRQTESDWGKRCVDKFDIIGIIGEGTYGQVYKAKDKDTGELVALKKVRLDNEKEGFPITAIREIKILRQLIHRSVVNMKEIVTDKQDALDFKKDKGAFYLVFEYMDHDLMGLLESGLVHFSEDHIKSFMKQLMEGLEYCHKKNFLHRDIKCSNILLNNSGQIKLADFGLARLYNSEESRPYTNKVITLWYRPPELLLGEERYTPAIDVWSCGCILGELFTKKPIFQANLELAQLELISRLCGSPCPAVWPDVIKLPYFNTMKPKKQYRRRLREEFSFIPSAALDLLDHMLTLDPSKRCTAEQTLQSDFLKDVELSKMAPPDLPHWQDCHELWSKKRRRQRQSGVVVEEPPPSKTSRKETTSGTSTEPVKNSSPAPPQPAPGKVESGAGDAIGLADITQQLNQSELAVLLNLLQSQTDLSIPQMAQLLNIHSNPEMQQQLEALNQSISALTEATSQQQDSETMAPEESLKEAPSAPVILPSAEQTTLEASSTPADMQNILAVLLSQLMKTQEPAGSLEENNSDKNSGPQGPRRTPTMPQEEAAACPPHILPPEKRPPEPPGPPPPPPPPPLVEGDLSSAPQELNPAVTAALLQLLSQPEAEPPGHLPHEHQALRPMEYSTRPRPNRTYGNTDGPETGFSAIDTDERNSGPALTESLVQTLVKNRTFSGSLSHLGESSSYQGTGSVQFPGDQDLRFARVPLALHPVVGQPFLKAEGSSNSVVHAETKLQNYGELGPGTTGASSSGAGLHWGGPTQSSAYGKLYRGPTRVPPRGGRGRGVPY
T2 sequence (O75909 whole entry partner): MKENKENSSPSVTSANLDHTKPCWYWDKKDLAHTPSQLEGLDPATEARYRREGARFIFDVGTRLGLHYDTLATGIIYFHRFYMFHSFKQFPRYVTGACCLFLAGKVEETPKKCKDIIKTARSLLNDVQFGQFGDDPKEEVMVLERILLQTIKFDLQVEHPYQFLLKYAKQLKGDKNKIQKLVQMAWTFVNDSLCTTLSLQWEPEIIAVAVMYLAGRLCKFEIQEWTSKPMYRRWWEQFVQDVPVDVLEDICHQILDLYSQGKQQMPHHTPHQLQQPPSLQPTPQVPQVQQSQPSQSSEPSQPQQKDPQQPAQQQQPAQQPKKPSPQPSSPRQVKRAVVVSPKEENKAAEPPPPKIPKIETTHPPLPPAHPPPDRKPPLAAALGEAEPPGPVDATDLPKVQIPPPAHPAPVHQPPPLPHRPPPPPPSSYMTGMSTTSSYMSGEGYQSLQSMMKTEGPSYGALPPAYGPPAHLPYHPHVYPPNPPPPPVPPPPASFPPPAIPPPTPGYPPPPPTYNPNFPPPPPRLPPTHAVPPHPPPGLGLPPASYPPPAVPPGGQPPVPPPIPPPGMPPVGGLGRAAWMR
T1 sequence (P50613 2-346 limits assumed): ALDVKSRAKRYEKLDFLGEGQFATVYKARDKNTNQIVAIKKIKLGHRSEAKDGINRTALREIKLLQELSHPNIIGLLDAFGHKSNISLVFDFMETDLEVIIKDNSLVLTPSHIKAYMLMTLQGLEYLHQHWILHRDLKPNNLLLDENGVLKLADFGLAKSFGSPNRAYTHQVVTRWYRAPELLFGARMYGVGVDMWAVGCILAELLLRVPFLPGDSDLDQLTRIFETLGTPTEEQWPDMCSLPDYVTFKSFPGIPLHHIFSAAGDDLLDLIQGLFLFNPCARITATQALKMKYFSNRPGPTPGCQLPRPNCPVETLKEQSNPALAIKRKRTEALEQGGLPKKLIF
T1 sequence (P51946 whole entry partner): as the sequence (P51946 whole entry partner) above
T1 sequence (P51948 whole entry partner): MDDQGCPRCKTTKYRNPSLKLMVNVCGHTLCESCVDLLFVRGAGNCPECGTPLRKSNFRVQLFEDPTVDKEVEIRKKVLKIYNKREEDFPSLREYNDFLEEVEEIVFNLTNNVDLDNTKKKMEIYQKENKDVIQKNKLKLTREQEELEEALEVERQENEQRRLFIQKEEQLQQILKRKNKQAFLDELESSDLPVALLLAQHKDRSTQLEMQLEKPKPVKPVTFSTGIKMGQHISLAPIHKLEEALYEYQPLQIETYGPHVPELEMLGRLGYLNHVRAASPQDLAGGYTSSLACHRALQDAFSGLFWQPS

Work on `C=CC(=O)Nc1cccc(Nc2nc(N[C@H]3CC[C@H](N(C)C)CC3)nc3c(CC)cnn23)c1` [SB1-E-17, N-(3-(2-((1r,4r)-4-(Dimethylamino)cyclohexylamino)-8-ethylpyrazolo[1,5-a][1,3,5]triazin-4-ylamino)phenyl)acrylamide] yielded an IC50 (CDK2/CycA) of 247 nM, an IC50 (CDK9/CycT) of 171 nM and an IC50 (CDK7/CycH) of 1020 nM. For the same molecule, the “Loss of sensitivity of CDK12 C1039S/CDK13 C1017S HAP1 cells compared to wild type HAP1 cells” value (HAP1 cells) was 4 fold, the “Pulldown of Cyclin H by biotin-THZ1 (CDK7 binding)” value (CDK7) was “not able to bind to CDK7” and the “Inhibition of Jurkat cell viability with and without washout” value (Jurkat cells [1]) was “irreversibly inhibit Jurkat cell viability”. The “Pulldown of Cyclin K by biotin-THZ1 (CDK12 binding)” value (CDK12) was “blocks the pulldown of Cyclin K”, the “Effect on Polymerase II Serine 2 phosphorylation and MCL1 levels with and without washout” value [2] was “irreversible effect” and the “Mode of inhibition of Jurkat T-ALL cell proliferation” value (Jurkat cells [3]) was “irreversiably inhibit”. The IC50 (Jurkat cells [3]; 72 h, CellTiter-Glo, read-out: IC50 on Jurkat T-ALL cell proliferation) was less than 100 nM and the IC50 (Jurkat cells [3]; read-out: Jurkat IC50) was 60.6 nM.
